Source: US20220056019A1, “FARNESOID X RECEPTOR AGONISTS AND USES THEREOF” (Metacrine, Inc., priority 2018, published 2022)

What follows are molecules tested against T1, hFXR (Homo sapiens, UniProt Q96RI1) (assay: In Vitro FXR Assay (TK): TK-ECRE-luc reporter in transfected CV-1 cells). Conditions: 18 hrs incubation, luminescence.
T1 construct: expressed in transfected cells; host or cells: CV-1 cells
T1 sequence (Q96RI1 1-486): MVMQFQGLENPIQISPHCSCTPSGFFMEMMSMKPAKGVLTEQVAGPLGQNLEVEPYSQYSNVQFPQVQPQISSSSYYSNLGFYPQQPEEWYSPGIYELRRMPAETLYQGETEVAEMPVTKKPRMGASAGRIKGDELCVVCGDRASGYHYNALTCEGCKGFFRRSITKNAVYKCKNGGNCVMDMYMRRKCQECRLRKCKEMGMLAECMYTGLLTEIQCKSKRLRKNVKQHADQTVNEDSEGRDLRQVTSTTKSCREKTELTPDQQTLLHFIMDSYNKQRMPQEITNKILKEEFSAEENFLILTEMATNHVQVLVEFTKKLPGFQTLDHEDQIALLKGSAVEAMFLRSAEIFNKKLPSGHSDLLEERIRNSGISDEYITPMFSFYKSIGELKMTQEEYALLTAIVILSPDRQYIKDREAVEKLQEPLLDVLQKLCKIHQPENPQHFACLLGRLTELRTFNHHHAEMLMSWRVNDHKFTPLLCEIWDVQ
T1 sequence (P19793 1-462 partner): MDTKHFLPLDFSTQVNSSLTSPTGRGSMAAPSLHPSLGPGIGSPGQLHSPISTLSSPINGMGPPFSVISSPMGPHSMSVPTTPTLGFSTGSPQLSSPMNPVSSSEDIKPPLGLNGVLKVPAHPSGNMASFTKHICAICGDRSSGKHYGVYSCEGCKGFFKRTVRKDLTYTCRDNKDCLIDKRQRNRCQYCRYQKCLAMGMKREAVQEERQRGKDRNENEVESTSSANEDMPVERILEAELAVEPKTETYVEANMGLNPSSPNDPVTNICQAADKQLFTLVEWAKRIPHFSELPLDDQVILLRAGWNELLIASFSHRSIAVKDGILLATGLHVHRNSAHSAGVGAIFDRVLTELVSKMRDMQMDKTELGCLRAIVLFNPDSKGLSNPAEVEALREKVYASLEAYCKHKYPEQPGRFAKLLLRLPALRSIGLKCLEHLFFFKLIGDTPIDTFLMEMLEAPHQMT
Assay type: cell-based
Outline: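 CV-1 cells transiently cotransfected with hFXR, hRXR, TK-ECRE-luc reporter and pCMX-YFP plasmids in charcoal-stripped serum medium. Serially diluted compounds added for 18 h at 37° C., then cells lysed and luciferase luminescence measured.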

| Compound | EC50 |
| --- | --- |
| COCCNC(=O)O[C@H]1CC[C@H](C(=O)N(CC23CCC(c4ccc(OC)c(C)c4)(CC2)CC3)c2cc(-c3cnn(C(C)C)c3)ccn2)CC1 [Compound 4.49, 4-((4-(1-Isopropyl-1H-pyrazol-4-yl)pyridin-2-yl) ((4-(4-methoxy-3-methylphenyl)bicyclo [2.2.2]octan-1-yl)methyl)carbamoyl)cyclohexyl(2-methoxyethyl)trans-carbamate] | ≤ 50 nM |
| COc1ccc([C@H]2CC[C@H](CN(c3cc(-n4cnc(C5CC5)n4)ccn3)C(=O)[C@H]3CC[C@H](OC(=O)N4CC(O)C4)CC3)CC2)cc1C [Compound 2.39, trans-4-((4-(3-Cyclopropyl-1H-1,2,4-triazol-1-yl)pyridin-2-yl)((trans-4-(4-methoxy-3-methylphenyl)cyclohexyl)methyl)carbamoyl)cyclohexyl 3-hydroxyazetidine-1-carboxylate] | ≤ 50 nM |
| COc1ccc(C23CCC(CN(c4cc(-c5cnc(C(C)C)o5)ccn4)C(=O)[C@H]4CC[C@H](OC(=O)N5CC(O)C5)CC4)(CC2)CC3)cc1C [Compound 4.25, 4-((4-(2-Isopropyloxazol-5-yl)pyridin-2-yl)((4-(4-methoxy-3-methylphenyl)bicyclo[2.2.2]octan-1-yl)methyl)carbamoyl) cyclohexyl 3-hydroxyazetidine-trans-1-carboxylate] | ≤ 50 nM |
| CC(C)n1cc(-c2ccnc(N(CC34CCC(c5ccc(N(C)C)nc5)(CC3)CC4)C(=O)[C@H]3CC[C@H](OC(=O)N4CC(O)C4)CC3)c2)cn1 [Compound 4.57, 4-(((4-(6-(Dimethylamino)pyridin-3-yl)bicyclo[2.2.2]octan-1-yl)methyl)(4-(1-isopropyl-1H-pyrazol-4-yl)pyridin-2-yl)carbamoyl) (trans-cyclohexyl) 3-hydroxyazetidine-1-carboxylate] | ≤ 50 nM |
| COc1ccc([C@H]2CC[C@H](CN(c3cc(-c4cnc(C(C)C)s4)ccn3)C(=O)[C@H]3CC[C@H](OC(=O)NC(C)C)CC3)CC2)cc1C [Compound 2.47, trans-4-((4-(2-Isopropylthiazol-5-yl)pyridin-2-yl)((trans-4-(4-methoxy-3-methylphenyl)cyclohexyl)methyl)carbamoyl)cyclohexyl isopropylcarbamate] | ≤ 50 nM |
| COc1ccc(C23CCC(CN(c4cc(-c5cnc(C6CC6)o5)ccn4)C(=O)[C@H]4CC[C@H](OC(=O)N5CC(O)C5)CC4)(CC2)CC3)cc1C [Compound 4.24, 4-((4-(2-Cyclopropyloxazol-5-yl)pyridin-2-yl)((4-(4-methoxy-3-methylphenyl)bicyclo [2.2.2]octan-1-yl)methyl)carbamoyl) cyclohexyl 3-hydroxyazetidine-trans-1-carboxylate] | ≤ 50 nM |
| COc1ccc([C@H]2CC[C@H](CN(c3cc(-c4cnn(C(F)(F)F)c4)ccn3)C(=O)[C@H]3CC[C@H](OC(=O)NCC(C)(C)O)CC3)CC2)cc1C [Compound 2.58, trans-4-((((trans)-4-(4-Methoxy-3-methylphenyl)cyclohexyl)methyl) (4-(1-(trifluoromethyl)-1H-pyrazol-4-yl)pyridin-2-yl)carbamoyl)cyclohexyl (2-hydroxy-2-methylpropyl)carbamate] | 50 to 1000 nM |
| COc1ccc([C@H]2CC[C@H](CN(c3cc(-c4cnc(C(C)C)s4)ccn3)C(=O)[C@H]3CC[C@H](OC(=O)NCC(C)(C)O)CC3)CC2)cc1C [Compound 2.10, trans-4-((4-(2-Isopropylthiazol-5-yl)pyridin-2-yl)((trans-4-(4-methoxy-3-methylphenyl)cyclohexyl)methyl)carbamoyl) cyclohexyl(2-hydroxy-2-methylpropyl)carbamate] | ≤ 50 nM |
| COc1ccc([C@H]2CC[C@H](CN(c3cc(-c4cnn(C(C)C)c4)ccn3)C(=O)[C@H]3CC[C@H](OC(=O)N4CC(S(C)(=O)=O)C4)CC3)CC2)cc1C [Compound 2.12, trans-4-((4-(1-Isopropyl-1H-pyrazol-4-yl)pyridin-2-yl)(((trans)-4-(4-methoxy-3-methylphenyl)cyclohexyl)methyl)carbamoyl) cyclohexyl 3-(methylsulfonyl)azetidine-1-carboxylate] | ≤ 50 nM |
| COc1ccc(C23CCC(CN(c4cc(-c5coc(C6CC6)n5)ccn4)C(=O)[C@H]4CC[C@H](OC(=O)N5CC(O)C5)CC4)(CC2)CC3)cc1C [Compound 4.02, 4-((4-(2-Cyclopropyloxazol-4-yl)pyridin-2-yl)((4-(4-methoxy-3-methylphenyl)bicyclo[2.2.2]octan-1-yl)methyl)carbamoyl) cyclohexyl 3-hydroxyazetidine-trans-1-carboxylate] | ≤ 50 nM |

Second part, the molecule after the results:

| EC50 | Compound |
| --- | --- |
| ≤ 50 nM | COc1c(F)cc(C23CCC(CN(c4cc(-c5cnn(C(C)C)c5)ccn4)C(=O)[C@H]4CC[C@H](OC(=O)N5CC(O)C5)CC4)(CC2)CC3)cc1F [Compound 26.06, 4-(((4-(3,5-Difluoro-4-methoxyphenyl)bicyclo[2.2.2]octan-1-yl)methyl)(4-(1-isopropyl-1H-pyrazol-4-yl)pyridin-2-yl)carbamoyl)cyclohexyl trans-3-hydroxyazetidine-1-carboxylate] |
| 50 to 1000 nM | CCC(=O)NC[C@H]1CC[C@H](C(=O)N(C[C@H]2CC[C@H](c3ccc(OC)c(C)c3)CC2)c2cccc(-c3cnn(C(C)C)c3)c2)CC1 [Compound 12.01, (trans)-N-(3-(1-Isopropyl-1H-pyrazol-4-yl)phenyl)-N-(((trans)-4-(4-methoxy-3-methylphenyl)cyclohexyl)methyl)-4-(propionamidomethyl)cyclohexane-carboxamide] |
| ≤ 50 nM | COc1ccc([C@H]2CC[C@H](CN(c3cc(-c4cnn(C(C)C)c4)ccn3)C(=O)[C@H]3CC[C@H](OCCCO)CC3)CC2)cc1C [Compound 16.01, trans-4-(3-Hydroxypropoxy)-N-(4-(1-isopropyl-1H-pyrazol-4-yl)pyridin-2-yl)-N-((trans-4-(4-methoxy-3-methylphenyl)cyclohexyl)methyl)cyclo-hexanecarboxamide] |
| ≤ 50 nM | COc1ccc(C23CCC(CN(c4ncc(F)c(-c5cnn(C(C)C)c5)c4F)C(=O)[C@H]4CC[C@H](OC(=O)N5CC(O)C5)CC4)(CC2)CC3)cc1C [Compound 25.14, 4-((3,5-Difluoro-4-(1-isopropyl-1H-pyrazol-4-yl)pyridin-2-yl)((4-(4-methoxy-3-methylphenyl)bicyclo[2.2.2]octan-1-yl)methyl)carbamoyl)(trans-cyclohexyl) 3-hydroxyazetidine-1-carboxylate] |
| ≤ 50 nM | COc1ccc(C23CCC(CN(c4cc(-c5cnn(C6CCC6)c5)ncn4)C(=O)[C@H]4CC[C@H](OC(=O)N5CC(CO)C5)CC4)(CC2)CC3)cc1C [Compound 23.24] |
| 1000 to 10000 nM | COc1ccc(C23CCC(CN(c4cc(-c5cnn(C6CCS(=O)(=O)CC6)c5)ccn4)C(=O)[C@H]4CC[C@H](OC(=O)N5CC(O)C5)CC4)(CC2)CC3)cc1C [Compound 26.23, 4-((4-(1-(1,1-Dioxidotetrahydro-2H-thiopyran-4-yl)-1H-pyrazol-4-yl)pyridin-2-yl)((4-(4-methoxy-3-methylphenyl)bicyclo[2.2.2]octan-1-yl)methyl)carbamoyl)cyclohexyl trans-3-hydroxyazetidine-1-carboxylate] |
| 50 to 1000 nM | COc1ccc([C@H]2CC[C@H](CN(c3cccc(-c4cnn(C(C)C)c4)c3)C(=O)[C@H]3CC[C@H](NC(=O)OC4CN(C)C4)CC3)CC2)cc1C [Compound 6.07, 1-Methylazetidin-3-yl (trans-4-((3-(1-isopropyl-1H-pyrazol-4-yl)phenyl)((trans-4-(4-methoxy-3-methylphenyl)cyclohexyl)meth-yl)carbamoyl)cyclohexyl)carbamate] |
